Source: ChEMBL document CHEMBL3232845 (Bioorg Med Chem Lett, 2014)

Key:
Parameters in all cases: scale not given: the % may be the effect or the level left
[1] = target: Serine/threonine-protein kinase BRSK2 (Homo sapiens) (UniProt Q8IWQ3); test: Inhibition of human BrSK2 assessed as enzyme activity at 1 uM relative to control
[2] = target: Calcium/calmodulin-dependent protein kinase type II subunit gamma (Homo sapiens) (UniProt Q13555); test: Inhibition of human CAMK2g assessed as enzyme activity at 1 uM relative to control
[3] = target: Cyclin-dependent kinase 1/cyclin B1 (Homo sapiens) (UniProt P06493+P14635); test: Inhibition of human CDK1/cyclinB assessed as enzyme activity at 1 uM relative to control; assay type: protein-complex assay
[4] = target: Tyrosine-protein kinase CSK (Homo sapiens) (UniProt P41240); test: Inhibition of human CSK assessed as enzyme activity at 1 uM relative to control
[5] = target: Serine/threonine-protein kinase TAO1 (Homo sapiens) (UniProt Q7L7X3); test: Inhibition of human TAO1 assessed as enzyme activity at 1 uM relative to control
[6] = target: Angiopoietin-1 receptor (Homo sapiens) (UniProt Q02763); test: Inhibition of human Tie2 assessed as enzyme activity at 1 uM relative to control
[7] = target: Tyrosine-protein kinase Yes (Homo sapiens) (UniProt P07947); test: Inhibition of human Yes assessed as enzyme activity at 1 uM relative to control
[8] = target: Mitogen-activated protein kinase 11 (Homo sapiens) (UniProt Q15759); test: Inhibition of human p38beta assessed as enzyme activity at 1 uM relative to control
[9] = target: Mitogen-activated protein kinase 13 (Homo sapiens) (UniProt O15264); test: Inhibition of human p38delta assessed as enzyme activity at 1 uM relative to control
[10] = target: Myosin light chain kinase, smooth muscle (Homo sapiens) (UniProt Q15746); test: Inhibition of human MYLK assessed as enzyme activity at 1 uM relative to control
[11] = target: Hepatocyte growth factor receptor (Homo sapiens) (UniProt P08581); test: Inhibition of human Met assessed as enzyme activity at 1 uM relative to control
[12] = target: Muscle, skeletal receptor tyrosine-protein kinase (Homo sapiens) (UniProt O15146); test: Inhibition of human MuSK assessed as enzyme activity at 1 uM relative to control
[13] = target: Serine/threonine-protein kinase PAK 5 (Homo sapiens) (UniProt Q9P286); test: Inhibition of human PAK5 assessed as enzyme activity at 1 uM relative to control
[14] = target: PAS domain-containing serine/threonine-protein kinase (Homo sapiens) (UniProt Q96RG2); test: Inhibition of human PASK assessed as enzyme activity at 1 uM relative to control
[15] = target: Protein kinase C epsilon type (Homo sapiens) (UniProt Q02156); test: Inhibition of human PKCepsilon assessed as enzyme activity at 1 uM relative to control
[16] = target: Protein kinase C gamma type (Homo sapiens) (UniProt P05129); test: Inhibition of human PKCgamma assessed as enzyme activity at 1 uM relative to control
[17] = target: Protein-tyrosine kinase 6 (Homo sapiens) (UniProt Q13882); test: Inhibition of human PTK6 assessed as enzyme activity at 1 uM relative to control
[18] = target: Proto-oncogene tyrosine-protein kinase receptor Ret (Homo sapiens) (UniProt P07949); test: Inhibition of human Ret assessed as enzyme activity at 1 uM relative to control
[19] = target: Proto-oncogene tyrosine-protein kinase ROS (Homo sapiens) (UniProt P08922); test: Inhibition of human Ros assessed as enzyme activity at 1 uM relative to control
[20] = target: Ribosomal protein S6 kinase alpha-3 (Homo sapiens) (UniProt P51812); test: Inhibition of human Rsk2 assessed as enzyme activity at 1 uM relative to control
[21] = target: Ribosomal protein S6 kinase alpha-2 (Homo sapiens) (UniProt Q15349); test: Inhibition of human Rsk3 assessed as enzyme activity at 1 uM relative to control
[22] = target: Serine/threonine-protein kinase Sgk2 (Homo sapiens) (UniProt Q9HBY8); test: Inhibition of human SGK2 assessed as enzyme activity at 1 uM relative to control
[23] = target: Ephrin type-A receptor 4 (Homo sapiens) (UniProt P54764); test: Inhibition of human EphA4 assessed as enzyme activity at 1 uM relative to control
[24] = target: Ephrin type-A receptor 5 (Homo sapiens) (UniProt P54756); test: Inhibition of human EphA5 assessed as enzyme activity at 1 uM relative to control
[25] = target: Receptor tyrosine-protein kinase erbB-4 (Homo sapiens) (UniProt Q15303); test: Inhibition of human ErbB4 assessed as enzyme activity at 1 uM relative to control
[26] = target: Protein-tyrosine kinase 2-beta (Homo sapiens) (UniProt Q14289); test: Inhibition of human FAK2 assessed as enzyme activity at 1 uM relative to control
[27] = target: Vascular endothelial growth factor receptor 1 (Homo sapiens) (UniProt P17948); test: Inhibition of human Flt1 assessed as enzyme activity at 1 uM relative to control
[28] = target: Macrophage colony-stimulating factor 1 receptor (Homo sapiens) (UniProt P07333); test: Inhibition of human Fms assessed as enzyme activity at 1 uM relative to control
[29] = target: Homeodomain-interacting protein kinase 3 (Homo sapiens) (UniProt Q9H422); test: Inhibition of human HIPK3 assessed as enzyme activity at 1 uM relative to control
[30] = target: Insulin-like growth factor 1 receptor (Homo sapiens) (UniProt P08069); test: Inhibition of human activated IGF-1R assessed as enzyme activity at 1 uM relative to control
[31] = target: Insulin receptor (Homo sapiens) (UniProt P06213); test: Inhibition of human IR assessed as enzyme activity at 1 uM relative to control
[32] = target: Interleukin-1 receptor-associated kinase 1 (Homo sapiens) (UniProt P51617); test: Inhibition of human IRAK1 assessed as enzyme activity at 1 uM relative to control
[33] = target: Interleukin-1 receptor-associated kinase 4 (Homo sapiens) (UniProt Q9NWZ3); test: Inhibition of human IRAK4 assessed as enzyme activity at 1 uM relative to control
[34] = target: Insulin receptor-related protein (Homo sapiens) (UniProt P14616); test: Inhibition of human IRR assessed as enzyme activity at 1 uM relative to control
[35] = target: Serine/threonine-protein kinase STK11 (Homo sapiens) (UniProt Q15831); test: Inhibition of human LKB1 assessed as enzyme activity at 1 uM relative to control
[36] = target: Mitogen-activated protein kinase kinase kinase 5 (Homo sapiens) (UniProt Q99683); test: Inhibition of human MAP3K5 assessed as enzyme activity at 1 uM relative to control
[37] = target: Dual specificity mitogen-activated protein kinase kinase 6 (Homo sapiens) (UniProt P52564); test: Inhibition of human MKK6 assessed as enzyme activity at 1 uM relative to control
[38] = target: Ribosomal protein S6 kinase alpha-6 (Homo sapiens) (UniProt Q9UK32); test: Inhibition of human Rsk4 assessed as enzyme activity at 1 uM relative to control

Sequence of Insulin receptor (Homo sapiens) (P06213 28-758 limits assumed): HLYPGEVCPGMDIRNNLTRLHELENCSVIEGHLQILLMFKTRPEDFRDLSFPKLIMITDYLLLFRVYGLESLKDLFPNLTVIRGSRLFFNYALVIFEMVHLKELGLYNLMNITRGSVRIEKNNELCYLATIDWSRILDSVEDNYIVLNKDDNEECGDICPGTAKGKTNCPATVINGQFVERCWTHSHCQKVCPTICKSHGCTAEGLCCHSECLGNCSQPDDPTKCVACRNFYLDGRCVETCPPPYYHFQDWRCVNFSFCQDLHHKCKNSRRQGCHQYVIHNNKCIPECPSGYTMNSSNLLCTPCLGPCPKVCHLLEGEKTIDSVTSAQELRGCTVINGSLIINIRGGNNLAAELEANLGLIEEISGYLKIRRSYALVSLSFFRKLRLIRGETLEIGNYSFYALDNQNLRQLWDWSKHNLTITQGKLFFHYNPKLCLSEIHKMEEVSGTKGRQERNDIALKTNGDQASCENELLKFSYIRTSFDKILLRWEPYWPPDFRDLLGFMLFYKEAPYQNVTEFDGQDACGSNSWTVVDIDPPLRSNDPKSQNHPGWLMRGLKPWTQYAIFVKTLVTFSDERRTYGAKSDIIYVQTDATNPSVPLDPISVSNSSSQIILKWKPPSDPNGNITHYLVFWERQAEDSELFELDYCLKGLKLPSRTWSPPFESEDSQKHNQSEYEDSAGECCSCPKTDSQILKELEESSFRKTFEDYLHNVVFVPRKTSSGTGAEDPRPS
Sequence of Insulin receptor (Homo sapiens) (P06213 763-1382 limits assumed): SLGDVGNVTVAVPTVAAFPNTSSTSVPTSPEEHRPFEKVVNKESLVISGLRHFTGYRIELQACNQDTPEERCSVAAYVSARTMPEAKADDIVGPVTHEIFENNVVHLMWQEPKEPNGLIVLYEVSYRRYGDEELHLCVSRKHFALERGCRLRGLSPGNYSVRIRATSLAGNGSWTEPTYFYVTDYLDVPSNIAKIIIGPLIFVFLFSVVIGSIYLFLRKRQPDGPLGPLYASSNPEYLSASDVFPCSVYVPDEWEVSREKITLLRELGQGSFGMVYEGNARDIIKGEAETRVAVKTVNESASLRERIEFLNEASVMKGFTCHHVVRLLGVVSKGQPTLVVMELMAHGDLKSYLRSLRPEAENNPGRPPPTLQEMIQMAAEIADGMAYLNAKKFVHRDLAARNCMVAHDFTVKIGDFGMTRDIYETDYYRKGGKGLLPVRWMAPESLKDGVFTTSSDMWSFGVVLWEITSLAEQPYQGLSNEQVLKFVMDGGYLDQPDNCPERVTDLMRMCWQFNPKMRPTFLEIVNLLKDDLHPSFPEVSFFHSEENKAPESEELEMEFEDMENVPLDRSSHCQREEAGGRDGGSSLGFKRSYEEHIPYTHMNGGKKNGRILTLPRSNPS
Sequence of Ephrin type-A receptor 4 (Homo sapiens) (P54764 whole entry): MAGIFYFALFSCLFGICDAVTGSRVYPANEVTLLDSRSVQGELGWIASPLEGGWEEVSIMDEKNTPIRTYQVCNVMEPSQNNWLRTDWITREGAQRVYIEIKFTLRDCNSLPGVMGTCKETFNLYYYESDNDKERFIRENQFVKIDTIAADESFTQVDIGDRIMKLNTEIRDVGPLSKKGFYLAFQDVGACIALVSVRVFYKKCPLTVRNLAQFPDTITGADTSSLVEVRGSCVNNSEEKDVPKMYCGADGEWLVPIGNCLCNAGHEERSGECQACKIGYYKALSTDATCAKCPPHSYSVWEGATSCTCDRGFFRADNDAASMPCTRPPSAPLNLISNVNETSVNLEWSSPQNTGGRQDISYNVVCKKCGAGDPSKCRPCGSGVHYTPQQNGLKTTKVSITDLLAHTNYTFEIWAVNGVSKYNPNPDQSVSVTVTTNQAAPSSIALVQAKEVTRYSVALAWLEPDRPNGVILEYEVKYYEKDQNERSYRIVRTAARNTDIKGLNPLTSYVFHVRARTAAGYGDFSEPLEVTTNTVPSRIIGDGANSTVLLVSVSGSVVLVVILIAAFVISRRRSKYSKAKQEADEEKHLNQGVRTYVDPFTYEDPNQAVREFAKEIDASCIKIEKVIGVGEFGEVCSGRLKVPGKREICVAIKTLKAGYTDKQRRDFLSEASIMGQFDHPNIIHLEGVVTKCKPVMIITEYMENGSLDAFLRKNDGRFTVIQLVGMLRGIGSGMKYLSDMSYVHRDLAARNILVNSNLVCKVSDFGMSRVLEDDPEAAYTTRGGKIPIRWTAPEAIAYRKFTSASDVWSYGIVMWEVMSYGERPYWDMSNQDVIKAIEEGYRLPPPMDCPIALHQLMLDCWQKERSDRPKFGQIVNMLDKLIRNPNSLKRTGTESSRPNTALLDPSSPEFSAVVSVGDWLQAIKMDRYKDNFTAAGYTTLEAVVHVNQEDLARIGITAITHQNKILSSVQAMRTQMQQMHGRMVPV
Sequence of Insulin receptor-related protein (Homo sapiens) (P14616 27-742 limits assumed): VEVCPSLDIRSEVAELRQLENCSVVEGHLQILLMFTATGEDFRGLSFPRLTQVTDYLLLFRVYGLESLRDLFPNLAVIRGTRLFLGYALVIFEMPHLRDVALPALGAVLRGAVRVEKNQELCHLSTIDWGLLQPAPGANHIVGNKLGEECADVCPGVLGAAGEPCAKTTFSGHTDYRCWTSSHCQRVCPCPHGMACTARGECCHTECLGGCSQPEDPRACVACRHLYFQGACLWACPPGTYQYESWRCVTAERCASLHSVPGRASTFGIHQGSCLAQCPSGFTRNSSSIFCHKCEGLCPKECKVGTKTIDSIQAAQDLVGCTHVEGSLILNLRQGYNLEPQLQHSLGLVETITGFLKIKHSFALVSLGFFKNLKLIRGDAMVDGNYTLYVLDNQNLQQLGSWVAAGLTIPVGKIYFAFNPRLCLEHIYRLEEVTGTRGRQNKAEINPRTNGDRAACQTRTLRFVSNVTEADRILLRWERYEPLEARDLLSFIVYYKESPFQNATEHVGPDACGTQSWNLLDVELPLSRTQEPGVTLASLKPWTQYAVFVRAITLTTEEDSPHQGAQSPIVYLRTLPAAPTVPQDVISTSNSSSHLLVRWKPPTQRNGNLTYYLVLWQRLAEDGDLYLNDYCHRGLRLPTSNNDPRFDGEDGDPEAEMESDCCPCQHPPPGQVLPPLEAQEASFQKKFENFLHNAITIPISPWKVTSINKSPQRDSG
Sequence of Insulin receptor-related protein (Homo sapiens) (P14616 747-1297 limits assumed): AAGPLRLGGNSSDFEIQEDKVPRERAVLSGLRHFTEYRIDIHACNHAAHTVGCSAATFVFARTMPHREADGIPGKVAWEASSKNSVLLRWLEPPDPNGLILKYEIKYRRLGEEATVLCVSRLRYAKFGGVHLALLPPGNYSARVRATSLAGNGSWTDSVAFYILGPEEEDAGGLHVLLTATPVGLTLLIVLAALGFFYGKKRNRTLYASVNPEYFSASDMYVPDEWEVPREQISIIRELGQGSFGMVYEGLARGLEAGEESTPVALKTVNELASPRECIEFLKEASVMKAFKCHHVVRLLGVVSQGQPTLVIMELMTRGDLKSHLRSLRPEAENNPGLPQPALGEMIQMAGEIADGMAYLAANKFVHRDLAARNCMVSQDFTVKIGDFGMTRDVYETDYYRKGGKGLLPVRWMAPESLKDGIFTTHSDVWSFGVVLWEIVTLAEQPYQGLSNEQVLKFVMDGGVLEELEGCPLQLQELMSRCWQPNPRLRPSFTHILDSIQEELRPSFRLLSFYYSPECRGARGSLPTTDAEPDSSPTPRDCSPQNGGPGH
Sequence of Proto-oncogene tyrosine-protein kinase receptor Ret (Homo sapiens) (P07949 whole entry): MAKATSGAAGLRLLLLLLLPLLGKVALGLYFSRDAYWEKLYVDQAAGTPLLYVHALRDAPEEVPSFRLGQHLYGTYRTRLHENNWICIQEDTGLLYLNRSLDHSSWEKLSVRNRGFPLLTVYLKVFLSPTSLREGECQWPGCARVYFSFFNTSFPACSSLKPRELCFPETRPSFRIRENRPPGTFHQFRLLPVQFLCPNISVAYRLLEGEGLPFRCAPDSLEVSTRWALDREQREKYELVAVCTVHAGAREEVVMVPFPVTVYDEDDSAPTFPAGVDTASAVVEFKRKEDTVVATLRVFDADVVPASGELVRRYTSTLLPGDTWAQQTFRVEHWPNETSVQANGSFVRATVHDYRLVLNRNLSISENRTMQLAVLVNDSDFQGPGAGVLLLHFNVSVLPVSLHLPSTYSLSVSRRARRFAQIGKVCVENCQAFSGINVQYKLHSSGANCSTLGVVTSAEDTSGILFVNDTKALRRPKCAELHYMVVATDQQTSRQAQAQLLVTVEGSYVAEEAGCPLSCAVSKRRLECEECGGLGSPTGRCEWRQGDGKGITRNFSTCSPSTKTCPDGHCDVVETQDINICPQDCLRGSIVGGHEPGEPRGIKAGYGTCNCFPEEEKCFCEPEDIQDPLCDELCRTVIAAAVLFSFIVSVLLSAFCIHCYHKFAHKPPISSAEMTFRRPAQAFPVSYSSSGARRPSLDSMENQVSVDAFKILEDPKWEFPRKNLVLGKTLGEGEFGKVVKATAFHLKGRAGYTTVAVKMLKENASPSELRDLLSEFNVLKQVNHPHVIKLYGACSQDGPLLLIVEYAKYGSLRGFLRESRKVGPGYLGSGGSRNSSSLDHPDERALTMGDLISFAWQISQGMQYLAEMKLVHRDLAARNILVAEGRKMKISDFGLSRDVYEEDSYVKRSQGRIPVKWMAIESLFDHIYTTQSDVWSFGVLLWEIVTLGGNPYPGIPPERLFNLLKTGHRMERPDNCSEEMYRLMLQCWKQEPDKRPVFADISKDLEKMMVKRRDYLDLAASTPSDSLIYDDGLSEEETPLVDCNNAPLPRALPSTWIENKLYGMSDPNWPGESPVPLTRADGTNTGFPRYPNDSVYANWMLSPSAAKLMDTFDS
Sequence of Dual specificity mitogen-activated protein kinase kinase 6 (Homo sapiens) (P52564 whole entry): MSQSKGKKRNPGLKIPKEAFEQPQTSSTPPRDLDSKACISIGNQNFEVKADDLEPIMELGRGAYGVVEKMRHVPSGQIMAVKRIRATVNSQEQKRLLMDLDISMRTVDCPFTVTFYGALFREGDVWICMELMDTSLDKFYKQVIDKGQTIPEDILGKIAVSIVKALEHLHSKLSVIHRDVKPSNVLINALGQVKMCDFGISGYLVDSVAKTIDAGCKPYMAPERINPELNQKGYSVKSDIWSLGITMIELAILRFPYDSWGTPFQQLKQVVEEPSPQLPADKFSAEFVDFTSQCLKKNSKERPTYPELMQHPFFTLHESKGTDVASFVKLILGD

**Q.** Which Activity [1] does the source give for CCCS(=O)(=O)Nc1cccc(Nc2ccc3ncn(C)c(=O)c3c2)c1C#N here?
**A.** 100%

**Q.** What about the Activity [2] of the same compound?
**A.** 104%

**Q.** What about the Activity [3] of the same compound?
**A.** 103%

**Q.** What about the Activity [4] of the same compound?
**A.** 111%

**Q.** And the Activity [5]?
**A.** 88.5%

**Q.** And the Activity [6]?
**A.** 118%

**Q.** What about the Activity [7] of the same compound?
**A.** 103%

**Q.** What about the Activity [8] of the same compound?
**A.** 110%

**Q.** And the Activity [9]?
**A.** 96%

**Q.** And the Activity [10]?
**A.** 106%

**Q.** What about the Activity [11] of the same compound?
**A.** 104%

**Q.** And the Activity [12]?
**A.** 95%

**Q.** And the Activity [13]?
**A.** 99.5%

**Q.** And the Activity [14]?
**A.** 110%

**Q.** And the Activity [15]?
**A.** 99.5%

**Q.** What about the Activity [16] of the same compound?
**A.** 101%

**Q.** And the Activity [17]?
**A.** 57.5%

**Q.** What about the Activity [18] of the same compound?
**A.** 98.5%

**Q.** What about the Activity [19] of the same compound?
**A.** 108%

**Q.** What about the Activity [20] of the same compound?
**A.** 121%

**Q.** And the Activity [21]?
**A.** 87%

**Q.** What about the Activity [22] of the same compound?
**A.** 109%

**Q.** And the Activity [23]?
**A.** 119%

**Q.** And the Activity [24]?
**A.** 103%

**Q.** What about the Activity [25] of the same compound?
**A.** 106%

**Q.** And the Activity [26]?
**A.** 85.5%

**Q.** And the Activity [27]?
**A.** 93.5%

**Q.** And the Activity [28]?
**A.** 99%

**Q.** What about the Activity [29] of the same compound?
**A.** 106%

**Q.** What about the Activity [30] of the same compound?
**A.** 84%

**Q.** What about the Activity [31] of the same compound?
**A.** 99.5%

**Q.** What about the Activity [32] of the same compound?
**A.** 108%

**Q.** And the Activity [33]?
**A.** 106%

**Q.** What about the Activity [34] of the same compound?
**A.** 101%

**Q.** What about the Activity [35] of the same compound?
**A.** 90.5%

**Q.** And the Activity [36]?
**A.** 96%

**Q.** What about the Activity [37] of the same compound?
**A.** 118%

**Q.** What about the Activity [38] of the same compound?
**A.** 120%
